The values that follow come from doi:10.1101/2021.10.07.463234v2 (biorxiv, 2021).

Where “and” joins values, the source holds several entries; their conditions need not be identical. Equal entries are not always repeated. Structures can show the parent of a compound that is named as a salt.

human MacroD2, sequence (A1Z1Q3 whole entry): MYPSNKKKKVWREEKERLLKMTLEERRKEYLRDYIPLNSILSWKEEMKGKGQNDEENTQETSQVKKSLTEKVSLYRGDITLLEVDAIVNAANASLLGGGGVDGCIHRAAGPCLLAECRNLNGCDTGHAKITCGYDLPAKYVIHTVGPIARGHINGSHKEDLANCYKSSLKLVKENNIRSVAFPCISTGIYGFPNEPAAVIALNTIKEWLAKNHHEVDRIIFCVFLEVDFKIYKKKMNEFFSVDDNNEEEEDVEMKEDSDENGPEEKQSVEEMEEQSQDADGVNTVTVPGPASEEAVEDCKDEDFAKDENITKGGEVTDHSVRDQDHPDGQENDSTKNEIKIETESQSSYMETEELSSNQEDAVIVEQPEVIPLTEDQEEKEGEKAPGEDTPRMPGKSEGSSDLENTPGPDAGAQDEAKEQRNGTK

The first test concerns the target human MacroD2 (Homo sapiens, UniProt A1Z1Q3). In words: ADPr-Glo luminescence ADP-ribosylhydrolase assay. Type of test: biochemical.
Settings: not given
Molecule `Cc1nc(Nc2ncc(C(=O)Nc3c(C)cccc3Cl)s2)cc(N2CCN(CCO)CC2)n1` [dasatinib] came in with an IC50 of more than 2000 µM.

As for `NNc1nnc(NN)c2ccccc12` [dihydralazine], the IC50 lay within 500 to 1830 µM.

A further test addresses T1, SARS-CoV-2 Mac1 (Severe acute respiratory syndrome coronavirus 2, UniProt P0DTD1). In words: biochemical. As to conditions: 100 µM; inhibitor.
Take `Cc1ccc(Sc2ccccc2N2CCNCC2)c(C)c1` [Vortioxetine (Lu AA21004) HBr]: the “%inhibition” value is listed as 12.23%.

On to `Cc1ccc(Sc2ccccc2N2CCNCC2)c(C)c1` [Vortioxetine], for which the “%inhibition” value was 4.926%.

As for `Cc1cn([C@H]2C[C@H](N=[N+]=[N-])[C@@H](CO)O2)c(=O)[nH]c1=O` [Zidovudine], the “%inhibition” value is reported as 8.703%.

Turning to `CCN1CCN(Cc2ccc(Nc3ncc(F)c(-c4cc(F)c5nc(C)n(C(C)C)c5c4)n3)nc2)CC1` [abemaciclib (LY2835219)], the “%inhibition” value was 4.001%.

Turning to `Cc1nc(Nc2ncc(C(=O)Nc3c(C)cccc3Cl)s2)cc(N2CCN(CCO)CC2)n1` [dasatinib], the “%inhibition” value is 66.44% and 68.55%.

As to `COc1cc2nccc(Oc3ccc(NC(=O)NC4CC4)c(Cl)c3)c2cc1C(N)=O` [lenvatinib Mesylate], the “%inhibition” value is given as 0%.

The same test, now with this note: read-out: %inhibition.
For `Oc1ncnc2[nH]ncc12` [Allopurinol], the inhibition at 100 µM is 0%.

As to `CCOC(=O)N[C@@H]1CC[C@@H]2[C@@H](C1)C[C@H]1C(=O)O[C@H](C)[C@H]1[C@H]2/C=C/c1ccc(-c2cccc(F)c2)cn1` [Vorapaxar], the inhibition at 100 µM was 0%.

In the case of `C[C@@H](c1ncncc1F)[C@](O)(Cn1cncn1)c1ccc(F)cc1F` [Voriconazole], the inhibition at 100 µM amounted to 0%.

With `O=C(CCCCCCC(=O)Nc1ccccc1)NO` [Vorinostat (SAHA, MK0683)], the inhibition at 100 µM is 0%.

`Cc1cccc(C)c1NC1=NCCCS1` [Xylazine HCl]: the inhibition at 100 µM is 25.3%.

As to `OC[C@@H](O)[C@H](O)[C@@H](O)CO` [Xylitol], the inhibition at 100 µM is 0%.

For the molecule `Cc1cc(C(C)(C)C)cc(C)c1CC1=NCCN1` [Xylometazoline HCl], the inhibition at 100 µM amounted to 9.99%.

As for `O=C[C@H](O)[C@@H](O)[C@H](O)CO` [Xylose], the inhibition at 100 µM was found to be 0%.

In the case of `COCC[n+]1c2c(n(Cc3cnccn3)c1C)C(=O)c1ccccc1C2=O` [YM155 (Sepantronium Bromide)], the inhibition at 100 µM worked out at 0%.

For `COC(=O)[C@@H]1[C@H]2C[C@H]3c4[nH]c5ccccc5c4CCN3C[C@@H]2CC[C@@H]1O` [Yohimbine HCl], the inhibition at 100 µM is 0%.

On to `COc1cc(C(=O)NS(=O)(=O)c2ccccc2C)ccc1Cc1cn(C)c2ccc(NC(=O)OC3CCCC3)cc12` [Zafirlukast], for which the inhibition at 100 µM worked out at 0%.

Take `Nc1ccn([C@H]2CC[C@@H](CO)O2)c(=O)n1` [Zalcitabine]: the inhibition at 100 µM is 19.2%.

As to `CC(C(=O)O)c1ccc2c(c1)CC(=O)c1ccccc1S2` (stereo not shown) [Zaltoprofen], the inhibition at 100 µM is 16.4%.

With `CC(=O)N[C@H]1[C@H]([C@H](O)[C@H](O)CO)OC(C(=O)O)=C[C@@H]1NC(=N)N` [Zanamivir], the inhibition at 100 µM was found to be 0%.

In the case of `COc1nc(C)cnc1NS(=O)(=O)c1cccnc1-c1ccc(-c2nnco2)cc1` [Zibotentan (ZD4054)], the inhibition at 100 µM was determined as 7.65%.

Consider `CC(c1cc2ccccc2s1)N(O)C(N)=O` (stereo not shown) [Zileuton], for which the inhibition at 100 µM worked out at 0%.

In the case of `O=C1Cc2cc(CCN3CCN(c4nsc5ccccc45)CC3)c(Cl)cc2N1` [Ziprasidone HCl], the inhibition at 100 µM is 0%.

Turning to `C[C@H](CSC(=O)c1ccccc1)C(=O)N1C[C@@H](Sc2ccccc2)C[C@H]1C(=O)O` [Zofenopril calcium], the inhibition at 100 µM stood at 10.7%.

On to `CN(C)CCc1c[nH]c2ccc(C[C@H]3COC(=O)N3)cc12` [Zolmitriptan], for which the inhibition at 100 µM amounted to 0%.

For the molecule `NS(=O)(=O)Cc1noc2ccccc12` [Zonisamide], the inhibition at 100 µM is 0%.

In the case of `O[C@@H](COc1cccc2ncccc12)CN1CCN(C2c3ccccc3[C@@H]3[C@H](c4ccccc42)C3(F)F)CC1` (stereo partly shown) [Zosuquidar (LY335979) 3HCl], the inhibition at 100 µM was 0%.

As for `Cc1nc(Nc2ncc(C(=O)Nc3c(C)cccc3Cl)s2)cc(N2CCN(CCO)CC2)n1` [dasatinib], the inhibition at 100 µM amounted to 78.6%.

For `O[C@H]1[C@H](O)[C@@H](O)[C@H](O)[C@@H](O)[C@H]1O` [i-Inositol], the inhibition at 100 µM is 0%.

With `CC[C@H](C)[C@H](N)C(=O)O` [isoleucine], the inhibition at 100 µM stood at 0%.

In the case of `O=C1[C@@H]2[C@H]3CC[C@H](C3)[C@@H]2C(=O)N1C[C@@H]1CCCC[C@H]1CN1CCN(c2nsc3ccccc23)CC1` [lurasidone], the inhibition at 100 µM amounted to 0%.

In the next test the target is T1, SARS-CoV-2 Mac1. As to the kind of experiment: biochemical. As to conditions: read-out: %inhibition.
In the case of `Nc1nc(Cl)nc2c1ncn2[C@@H]1O[C@H](COP(=O)(O)OP(=O)(O)OP(=O)(O)O)[C@H](O)C1O` (stereo partly shown) [2-Chloroadenosine triphosphate tetrasodium], the inhibition at 100 µM came to 57%.

As to `NNCc1cccc(O)c1` [3-Hydroxybenzylhydrazine dihydrochloride], the inhibition at 100 µM turned out to be 32%.

As for `Cc1cccc(C#Cc2ccccc2)n1` [6-Methyl-2-(phenylethynyl)pyridine hydrochloride], the inhibition at 100 µM was 45%.

With `Oc1ncnc2[nH]ncc12` [Allopurinol], the inhibition at 100 µM stood at 37%.

Take `O=C1c2c(O)ccc(O)c2C(=O)c2c(NCCNCCO)ccc(NCCNCCO)c21` [Mitoxantrone]: the inhibition at 100 µM was 53%.

For `O=C(Nc1cc(C(=O)Nc2ccc(S(=O)(=O)O)cc2S(=O)(=O)O)cc(C(=O)Nc2ccc(S(=O)(=O)O)cc2S(=O)(=O)O)c1)Nc1cc(C(=O)Nc2ccc(S(=O)(=O)O)cc2S(=O)(=O)O)cc(C(=O)Nc2ccc(S(=O)(=O)O)cc2S(=O)(=O)O)c1` [NF449 octasodium salt], the inhibition at 100 µM was determined as 54%.

As for `COc1cc2c(cc1OC)[C@@H](c1ccccc1)CN(C)CC2` [R(-)-SCH-12679 maleate], the inhibition at 100 µM was determined as 96%.

With `Nc1c(S(=O)(=O)O)cc(Nc2ccc(Nc3nc(Cl)nc(Nc4cccc(S(=O)(=O)O)c4)n3)c(S(=O)(=O)O)c2)c2c1C(=O)c1ccccc1C2=O` [Reactive Blue 2], the inhibition at 100 µM came to 100%.

With `Nc1nc(SCc2ccc([N+](=O)[O-])cc2)c2ncn([C@@H]3O[C@H](CO)[C@@H](O)[C@H]3O)c2n1` [S-(4-Nitrobenzyl)-6-thioguanosine], the inhibition at 100 µM was determined as 35%.

On to `Cc1ccc(O)c(N=Nc2ccccc2)n1` [SIB 1757], for which the inhibition at 100 µM stood at 79%.

With `Cc1ccc(C(=O)Nc2ccc(S(=O)(=O)O)c3cc(S(=O)(=O)O)cc(S(=O)(=O)O)c23)cc1NC(=O)c1cccc(NC(=O)Nc2cccc(C(=O)Nc3cc(C(=O)Nc4ccc(S(=O)(=O)O)c5cc(S(=O)(=O)O)cc(S(=O)(=O)O)c45)ccc3C)c2)c1` [Suramin hexasodium], the inhibition at 100 µM came to 86%.

Take `N#CC(C#N)=Cc1ccc(O)c(O)c1` [Tyrphostin 23]: the inhibition at 100 µM came out at 52%.

Turning to `N#C/C(=C\c1ccc(O)c(O)c1)C(=O)NCc1ccccc1` [Tyrphostin AG 490], the inhibition at 100 µM came to 79%.

In the case of `N#C/C(=C\c1ccc(O)c(O)c1)C(=O)NCCCNC(=O)/C(C#N)=C/c1ccc(O)c(O)c1` [Tyrphostin AG 537], the inhibition at 100 µM was 54%.

The next test concerns the target T1, SARS-CoV-2 Mac1. As to the kind of experiment: biochemical.
Settings: not given
`Cc1nc(Nc2ncc(C(=O)Nc3c(C)cccc3Cl)s2)cc(N2CCN(CCO)CC2)n1` [dasatinib] gave a half-maximal inhibitory concentration (IC50) of 37.5 to 57.5 µM.

The molecule `NNc1nnc(NN)c2ccccc12` [dihydralazine] came in with an IC50 of 485 to 757 µM.
